Data: patent US20190125745A1, “TREATMENT AND DIAGNOSIS OF CANCER” (Rgenix, Inc., priority 2014, published 2019)
Structures can show the parent of a compound that is named as a salt.

Assays:
[1] = system: SK-Mel-2 human melanoma cells; test: Subcutaneous SK-Mel-2 tumor growth in immunocompromised mice; format: in vivo; details: oral
Method: FIG. 4. Therapeutic LXR Activation Inhibits Melanoma Tumor Growth. […] Representative tumor images shown correspond to tumors extracted at the final day (d12). n=10-18 (A), 8-10 (B). (C-E) Primary tumor growth by 1×10^6 MeWo (C), […] SK-Mel-334.2 (D), and 2×10^6 SK-Mel-2 (E) human melanoma cells subcutaneously injected into immunocompromised mice. […] Tumor images shown correspond to last day of measurements. n=6-34 (C), 8 (D), 5 (E). (F) 5×10^4 B16F10 cells were injected subcutaneously into C57BL/6-WT mice. Upon tumor growth to 150 mm^3, mice were fed continuously with a control chow or a chow containing GW3965 (150 mg/kg), and tumor growth was measured daily. n=6-13. […] Tumor volume was calculated as (small diameter)^2×(large diameter)/2. […] Scale bars, 5 mm (A-D), 50 μm (J, K), 25 μm (L).

[2] = system: ApoE promoter; test: ApoE promoter activity assay (luciferase, ME.1/ME.2); format: cell-based, human; details: 1 μM
Text: FIG. 11. LXRβ Activation Suppresses Melanoma Invasion and Endothelial Recruitment by Transcriptionally Enhancing Melanoma-Cell ApoE Expression. […] Scale bar, 50 μm.
The ApoE promoter, consisting of a sequence spanning 980 base pairs upstream and 93 base pairs downstream of the ApoEgene, was cloned into a pGL3-Basic vector (E1751, Promega Corporation, Madison, Wis.) upstream of the firefly luciferase gene using NheI and SacI restriction enzymes. Then, multi-enhancer elements 1 (ME.1) and 2 (ME.2) were cloned directly upstream of the ApoE promoter using MluI and […] restriction enzymes. To assess ApoE promoter- and ME.1/ME.2-driven transcriptional activation by LXR agonists, 5×10^4 MeWo cells were seeded into a 24-well plate. […] To assess transcriptional activation by LXRα or LXRβ, 5×10^4 MeWo cells expressing a control shRNA or shRNA targeting LXRα or LXRβ were seeded into a 24-well plate. […] After 24 hours, cells were lysed, and cell lysate was analyzed for firefly and renilla luciferase activity using the Dual Luciferase Assay System (E1960, Promega) and a Bio-Tek Synergy NEO Microplate Reader. Firefly luciferase signal was normalized to renilla luciferase signal and all data are expressed relative to the luciferase activity ratio measured in the DMSO-treated control cells.

[3] = system: DTIC-resistant MeWo human melanoma cells; details: oral, diet 100 mg/kg
Method: Tumor growth was measured twice a week.

[4] = system: RCC human renal cancer cells, PANC1 human pancreatic cancer cells, H460 human lung cancer cells; test: Trans-well matrigel invasion of renal, pancreatic and lung cancer cells; format: cell-based; details: 1 μM, 72 hours
Method: FIG. 17. Treatment with the LXR agonist GW3965 inhibits In Vitro tumor cell invasion of renal cancer, pancreatic cancer, and lung cancer.
Following serum starvation, the cells were subjected to the trans-well invasion assay using a matrigel invasion chamber system (354480, BD Biosciences). Invasion chambers were pre-equilibrated prior to the assay by adding 0.5 mL of starvation media to the top and bottom wells. Meanwhile, cancer cells were trypsinized and viable cells were counted using trypan blue. Cancer cells were then resuspended at a concentration of 1×10^5 cells/1 mL starvation media, and 0.5 mL of cell suspension, containing 5×10^4 cells, was seeded into each trans-well. The invasion assay was allowed to proceed for 24 hours at 37′C. […] Following fixation, the inserts were washed in PBS and then cut out and mounted onto slides using VectaShield mounting medium containing DAPI nuclear stain (H-1000, Vector Laboratories). The basal side of each insert was imaged using an inverted fluorescence microscope (Zeiss Axiovert 40 CFL) at 5× magnification, and the number of DAPI-positive cells was quantified using ImageJ.

[5] = in vivo; cited from earlier work

SMILES: O=C(O)Cc1cccc(OCCCN(Cc2cccc(C(F)(F)F)c2Cl)CC(c2ccccc2)c2ccccc2)c1 [GW3965 108, 3-[3-[N-(2-Chloro-3-trifluoromethylbenzyl)-(2,2-diphenylethyl)amino]propyloxy] phenylacetic acid hydrochloride]
- inhibition of tumor growth, SK-Mel-2 [1]: 49%
- ability to upregulate ApoE transcription and protein expression upon melanoma cell depletion of LXRβ, but not LXRα [2]: abrogated
- growth of in vivo-derived DTIC-resistant human melanoma tumors (MeWo) [3]: strongly inhibited
- tumor cell invasion in all three cancer types tested [4]: inhibition
- crossing of the blood brain barrier [5]: can efficiently cross the blood brain barrier
